# pIC50: −log10 of the molar value.
# Legend:
# TEAD3 = TEAD3 (Homo sapiens, UniProt Q99594); assay: TEAD lipid assay (Lipid FP, Bodipy-C16 probe displacement); assay type: binding; conditions: fluorescence polarization, His-tagged TEAD, 60 minutes incubation
# Experimental: (§1) A TEAD lipid assay was done according to the following method. His-tagged TEAD proteins were pre-incubated with a Bodipy-C16 FP probe (Life Technologies Cat #D3821) for 30 minutes at room temperature to pre-form TEAD-probe complex. […] Duplicate 10 point dose response curves were generated for each test compound. The potency of compounds as TEAD lipid pocket binders was determined by IC50 value generated using a non-linear 4 parameter curve fit.
# TEAD2 = TEAD2 (Homo sapiens, UniProt Q15562); assay: as above; assay type: binding; conditions: fluorescence polarization, His-tagged TEAD, 60 minutes incubation
# TEAD2, sequence (Q15562 whole entry, species assumed): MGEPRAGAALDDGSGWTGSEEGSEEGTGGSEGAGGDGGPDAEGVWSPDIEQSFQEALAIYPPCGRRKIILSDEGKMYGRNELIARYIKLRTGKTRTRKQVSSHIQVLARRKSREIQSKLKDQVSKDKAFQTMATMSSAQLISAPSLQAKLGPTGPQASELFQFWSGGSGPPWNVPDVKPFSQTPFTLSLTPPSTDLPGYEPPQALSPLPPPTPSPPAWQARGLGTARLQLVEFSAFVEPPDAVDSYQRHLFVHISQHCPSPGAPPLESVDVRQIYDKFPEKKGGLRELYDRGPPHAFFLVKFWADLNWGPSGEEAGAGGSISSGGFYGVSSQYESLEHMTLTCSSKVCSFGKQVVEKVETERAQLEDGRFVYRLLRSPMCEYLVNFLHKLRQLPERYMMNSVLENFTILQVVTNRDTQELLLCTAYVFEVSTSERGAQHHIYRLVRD
# Experimental: as §1
# TEAD3, sequence (Q99594 whole entry, species assumed): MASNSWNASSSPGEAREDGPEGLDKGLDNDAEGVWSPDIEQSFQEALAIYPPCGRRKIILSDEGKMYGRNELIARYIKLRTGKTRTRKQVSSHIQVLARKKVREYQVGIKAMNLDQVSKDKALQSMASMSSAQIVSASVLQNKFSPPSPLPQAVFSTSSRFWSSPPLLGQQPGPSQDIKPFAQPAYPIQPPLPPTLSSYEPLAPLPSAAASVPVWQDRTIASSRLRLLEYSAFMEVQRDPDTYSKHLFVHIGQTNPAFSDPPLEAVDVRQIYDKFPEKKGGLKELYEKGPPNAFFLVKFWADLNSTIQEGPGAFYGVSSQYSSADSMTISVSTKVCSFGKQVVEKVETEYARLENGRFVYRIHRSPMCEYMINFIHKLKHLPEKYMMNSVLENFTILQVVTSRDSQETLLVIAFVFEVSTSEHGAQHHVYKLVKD
Compound,pIC50 (TEAD3),pIC50 (TEAD2)
"CC[C@H](CO)NC(=O)c1cnc(OC)c(/C=C/C2CCC(F)(F)CC2)c1 (racemic) [Compound 35, 6-methoxy-5-[rac-(E)-2-(4,4-difluorocyclohexyl)vinyl]-N-[rac-(1R)-1-(hydroxymethyl)propyl]pyridine-3-carboxamide]",5.85,5.72
"COc1ncc(NS(C)(=O)=O)cc1/C=C/C1CC(C(F)(F)F)C1 (racemic) [Compound 37, N-[6-methoxy-5-[rac-(E)-2-[3-(trifluoromethyl)cyclobutyl]vinyl]-3-pyridyl]methanesulfonamide]",5.89,6.12
"CC[C@H](CO)NC(=O)c1cc(/C=C/C2CCC(F)(F)CC2)c(OC)cn1 (racemic) [Compound 41, 5-methoxy-4-[rac-(E)-2-(4,4-difluorocyclohexyl)vinyl]-N-[rac-(1R)-1-(hydroxymethyl)propyl]pyridine-2-carboxamide]",5.96,5.74
"COc1ccc(NS(C)(=O)=O)cc1C1CC1C1CCCCC1 (single isomer, unassigned) [Compound 1B, N-(3-(2-Cyclohexylcyclopropyl)-4-methoxyphenyl)methanesulfonamide]",5.74,6.00
"COc1ccc(NS(C)(=O)=O)cc1/C=C/C1CCC(C)CC1 (single isomer, unassigned) [Compound 6A, (E)-N-(4-Methoxy-3-(2-(4-methylcyclohexyl)vinyl)phenyl) methanesulfonamide]",5.77,6.02
"COc1ccc(NS(C)(=O)=O)cc1[C@H]1C[C@H](c2ccc(Cl)cc2)C1 (single isomer, unassigned) [Compound 7A]",5.77,6.04
"COc1ccc(NS(C)(=O)=O)cc1[C@H]1C[C@H](c2cccc(F)c2)C1 (single isomer, unassigned) [Compound 8A]",5.85,6.13
"COc1ccc(C(=O)NC(C)C)cc1[C@H]1C[C@H](c2ccc(Cl)cc2)C1 (single isomer, unassigned) [Compound 9A]",5.80,6.11
"COc1ncc(C(=O)NC(C)CCO)cc1/C=C/c1ccc(Cl)cc1 (single isomer, unassigned) [Compound 19, 5-[(E)-2-(4-chlorophenyl)vinyl]-N-(3-hydroxy-1-methyl-propyl)-6-methoxy-pyridine-3-carboxamide]",5.80,5.72
"COc1ccc(C(=O)NC(C)CCO)cc1/C=C/c1ccc(Cl)cc1 (single isomer, unassigned) [Compound 51, 3-[(E)-2-(4-chlorophenyl)vinyl]-N-(3-hydroxy-1-methyl-propyl)-4-methoxy-benzamide]",5.70,6.02
"COc1ccc(NS(C)(=O)=O)cc1/C=C/C1CCC(F)(F)CC1 [Compound 2, N-[3-[(E)-2-(4,4-difluorocyclohexyl)vinyl]-4-methoxy-phenyl]methanesulfonamide]",5.82,6.00
"COc1ccc(NS(C)(=O)=O)cc1/C=C/C1CCCC1 [Compound 3, N-[3-[(E)-2-cyclopentylvinyl]-4-methoxy-phenyl]methanesulfonamide]",5.74,6.24
"COc1ccc(NS(C)(=O)=O)cc1/C=C/CC1CCCCC1 [Compound 4, N-[3-[(E)-3-cyclohexylprop-1-enyl]-4-methoxy-phenyl]methanesulfonamide]",5.89,6.02
"COc1ccc(NS(C)(=O)=O)cc1/C=C/C1CCC(C)(C)CC1 [Compound 5, N-[3-[(E)-2-(4,4-dimethylcyclohexyl)vinyl]-4-methoxy-phenyl]methanesulfonamide]",6.11,6.22
"COc1cc(F)c(NS(=O)(=O)C2CC2)cc1/C=C/c1ccc(Cl)cc1 [Compound 10, N-[5-[(E)-2-(4-chlorophenyl)vinyl]-2-fluoro-4-methoxy-phenyl]cyclopropanesulfonamide]",5.72,5.96
"COc1cc(F)c(NS(=O)(=O)C2CC2)cc1-c1ccc(C(C)C)cc1 [Compound 11, N-[2-fluoro-5-(4-isopropylphenyl)-4-methoxy-phenyl]cyclopropanesulfonamide]",6.20,6.25
"COc1cc(F)c(NS(C)(=O)=O)cc1-c1ccc(C(C)C)cc1 [Compound 12, N-[2-fluoro-5-(4-isopropylphenyl)-4-methoxy-phenyl]methanesulfonamide]",6.07,6.23
"COc1ncc(NS(C)(=O)=O)cc1C1CC(c2ccc(Cl)cc2)C1 (centres unmarked) [Compound 13, N-[5-[3-(4-chlorophenyl)cyclobutyl]-6-methoxy-3-pyridyl]methanesulfonamide]",5.74,6.14
"COc1ncc(NS(C)(=O)=O)cc1/C=C/C1CCC(F)(F)CC1 [Compound 14, N-[5-[(E)-2-(4,4-difluorocyclohexyl)vinyl]-6-methoxy-3-pyridyl]methanesulfonamide]",6.37,6.42
"COc1ncc(NS(C)(=O)=O)cc1/C=C/CC(C)C [Compound 15, N-[6-methoxy-5-[(E)-4-methylpent-1-enyl]-3-pyridyl]methanesulfonamide]",5.70,5.92

Compound,pIC50 (TEAD3),pIC50 (TEAD2)
"COc1ncc(NS(C)(=O)=O)cc1/C=C/[C@H]1CC[C@H](C(F)(F)F)CC1 [Compound 16, N-[6-methoxy-5-[(E)-2-[4-(trifluoromethyl)cyclohexyl]vinyl]-3-pyridyl]methanesulfonamide]",5.92,6.16
"COc1ncc(NS(C)(=O)=O)cc1/C=C/C1CC2(CC2)C1 [Compound 17, N-[6-methoxy-5-[(E)-2-spiro[2.3]hexan-5-ylvinyl]-3-pyridyl]methanesulfonamide]",5.74,6.09
"CCOc1ncc(NS(C)(=O)=O)cc1/C=C/C1CCC(F)(F)CC1 [Compound 18, N-[5-[(E)-2-(4,4-difluorocyclohexyl)vinyl]-6-ethoxy-3-pyridyl]methanesulfonamide]",5.92,5.72
"COc1cnc(NS(C)(=O)=O)cc1/C=C/C1(F)CCC(F)(F)CC1 [Compound 20, N-[5-methoxy-4-[(E)-2-(1,4,4-trifluorocyclohexyl)vinyl]-2-pyridyl]methanesulfonamide]",6.12,5.70
"COc1cnc(NS(C)(=O)=O)cc1/C=C/C1(F)CCC(C(F)(F)F)CC1 (centres unmarked) [Compound 21, N-[4-[(E)-2-[1-fluoro-4-(trifluoromethyl)cyclohexyl]vinyl]-5-methoxy-2-pyridyl]methanesulfonamide]",6.20,6.07
"Cc1cn(Cc2ccc(Cl)cc2)c2cc(NS(C)(=O)=O)ccc12 [Compound 22, N-[1-[(4-chlorophenyl)methyl]-3-methyl-indol-6-yl]methanesulfonamide]",5.89,6.03
"Cc1cn(Cc2ccc(Cl)cc2)c2cc(NS(=O)(=O)C3CC3)ccc12 [Compound 23, N-[1-[(4-chlorophenyl)methyl]-3-methyl-indol-6-yl]cyclopropanesulfonamide]",6.08,5.92
"Cn1cc(Cc2ccc(Cl)cc2)c2cc(NS(C)(=O)=O)ccc21 [Compound 24, N-[3-[(4-chlorophenyl)methyl]-1-methyl-indol-5-yl]methanesulfonamide]",6.11,6.44
"COc1ccc(NS(=O)(=O)C2CC2)cc1-c1ccc(C(C)C)cc1 [Compound 25, N-[3-(4-isopropylphenyl)-4-methoxy-phenyl]cyclopropanesulfonamide]",5.92,6.42
"COc1ccc(C(=O)NC(C)C)cc1-c1ccc(C2CC2)cc1 [Compound 26, 3-(4-cyclopropylphenyl)-N-isopropyl-4-methoxy-benzamide]",5.77,5.70
"COc1ccc(NS(C)(=O)=O)cc1/C=C/C1CCCCC1 [Compound 27, N-[3-[(E)-2-cyclohexylvinyl]-4-methoxy-phenyl]methanesulfonamide]",5.92,6.00
"COc1ccc(NS(=O)(=O)C2CC2)cc1/C=C/C1CCCCC1 [Compound 28, N-[3-[(E)-2-cyclohexylvinyl]-4-methoxy-phenyl]cyclopropanesulfonamide]",6.00,6.05
COc1ccc(C(=O)NC(C)C)cc1/C=C/C1CCCCC1 [Compound 29],5.96,6.00
"COc1ccc(C(=O)NC(C)C)cc1/C=C/Cc1ccccc1 [Compound 30, N-isopropyl-4-methoxy-3-[(E)-3-phenylprop-1-enyl]benzamide]",6.21,6.14
"COc1ccc(C(N)=O)cc1/C=C/C1CCCCC1 [Compound 31, 3-[(E)-2-cyclohexylvinyl]-4-methoxy-benzamide]",6.01,6.11
"COc1ccc(C(N)=O)cc1/C=C/Cc1ccccc1 [Compound 32, 4-methoxy-3-[(E)-3-phenylprop-1-enyl]benzamide]",5.85,6.21
"COc1ccc(NS(=O)(=O)C2CC2)cc1/C=C/Cc1ccccc1 [Compound 33, N-[4-methoxy-3-[(E)-3-phenylprop-1-enyl]phenyl]cyclopropanesulfonamide]",5.92,6.08
"C=CS(=O)(=O)Nc1ccc(OC)c(/C=C/c2ccc(Cl)cc2)c1 [Compound 34, N-[3-[(E)-2-(4-chlorophenyl)vinyl]-4-methoxy-phenyl]ethenesulfonamide]",5.92,6.02
"COc1ncc(NS(C)(=O)=O)cc1/C=C/C1CC(C)(C)C1 [Compound 36, N-[5-[(E)-2-(3,3-dimethylcyclobutyl)vinyl]-6-methoxy-3-pyridyl]methanesulfonamide]",5.85,6.02
"COc1nc(F)c(NS(C)(=O)=O)cc1/C=C/C1CCCCC1 [Compound 38, N-[5-[(E)-2-cyclohexylvinyl]-2-fluoro-6-methoxy-3-pyridyl]methanesulfonamide]",5.70,5.96
